Test results from patent publication US20230064983A1 (priority 2020, published 2023).
Values joined by “and” are separate entries in the source; they are usually repeats but may differ in a detail not shown here. Equal values may be shown once.

How the values were obtained:
Ba/F3-EGFR-WT cells = Ba/F3-EGFR-WT cells (Homo sapiens, UniProt P00533); test: Ba/F3 cell survival assay, wild type EGFR; format: cell-based; settings: Cell Titer-Glo, 48 h, with 10 ng/mL EGF; Table 4; read-out: BA/F3 (wild type) IC50
[1] = biological target: Ba/F3-EGFR-D770_N771insSVD cells (Homo sapiens, UniProt P00533, DUP768-770, cells depend on it); test: Ba/F3 cell survival assay, EGFR D770_N771insSVD; format: cell-based; settings: Cell Titer-Glo, 48 h, without IL-3; Table 4; read-out: BA/F3 (insSVD) IC50
[2] = biological target: T1, EGFR with insertion SVD between D770 and N771 (mutEGFR D770_N771insSVD) (Homo sapiens, UniProt P00533, DUP768-770); test: Exon20-Mutant-EGFR(D770_N771insSVD) kinase assay (TR-FRET); format: biochemical; settings: 2 mM ATP, Table 2
T1 construct: amino acids R669 to A1210; made in house; host or cells: Sf9 insect cells (baculovirus)

Bub1 = biological target: T2, Bub1 (Homo sapiens, UniProt O43683); test: Bub1 high ATP kinase assay (TR-FRET); format: biochemical; settings: Bub1 high ATP (2 mM) IC50, TR-FRET, 2 mM ATP; Table 3
T2 construct: catalytic domain of human Bub1 (amino acids 704-1085); His6 (N); made in house; host or cells: insect cells (Hi5)
In short: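 Enzyme was His6-tagged human Bub1 catalytic domain (aa 704-1085) from Hi5 insect cells, typically about 200 ng/ml, with a biotinylated peptide substrate at high ATP. Reaction ran 60 min at 22 °C, then was stopped with EDTA. Phosphopeptide was detected by TR-FRET (anti-phosphoserine antibody, Eu-labelled anti-mouse IgG, streptavidin-XL665), read as the 665/620 nm emission ratio.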

Sequence of Ba/F3-EGFR-WT cells (P00533 whole entry, looked up, stated change not applied): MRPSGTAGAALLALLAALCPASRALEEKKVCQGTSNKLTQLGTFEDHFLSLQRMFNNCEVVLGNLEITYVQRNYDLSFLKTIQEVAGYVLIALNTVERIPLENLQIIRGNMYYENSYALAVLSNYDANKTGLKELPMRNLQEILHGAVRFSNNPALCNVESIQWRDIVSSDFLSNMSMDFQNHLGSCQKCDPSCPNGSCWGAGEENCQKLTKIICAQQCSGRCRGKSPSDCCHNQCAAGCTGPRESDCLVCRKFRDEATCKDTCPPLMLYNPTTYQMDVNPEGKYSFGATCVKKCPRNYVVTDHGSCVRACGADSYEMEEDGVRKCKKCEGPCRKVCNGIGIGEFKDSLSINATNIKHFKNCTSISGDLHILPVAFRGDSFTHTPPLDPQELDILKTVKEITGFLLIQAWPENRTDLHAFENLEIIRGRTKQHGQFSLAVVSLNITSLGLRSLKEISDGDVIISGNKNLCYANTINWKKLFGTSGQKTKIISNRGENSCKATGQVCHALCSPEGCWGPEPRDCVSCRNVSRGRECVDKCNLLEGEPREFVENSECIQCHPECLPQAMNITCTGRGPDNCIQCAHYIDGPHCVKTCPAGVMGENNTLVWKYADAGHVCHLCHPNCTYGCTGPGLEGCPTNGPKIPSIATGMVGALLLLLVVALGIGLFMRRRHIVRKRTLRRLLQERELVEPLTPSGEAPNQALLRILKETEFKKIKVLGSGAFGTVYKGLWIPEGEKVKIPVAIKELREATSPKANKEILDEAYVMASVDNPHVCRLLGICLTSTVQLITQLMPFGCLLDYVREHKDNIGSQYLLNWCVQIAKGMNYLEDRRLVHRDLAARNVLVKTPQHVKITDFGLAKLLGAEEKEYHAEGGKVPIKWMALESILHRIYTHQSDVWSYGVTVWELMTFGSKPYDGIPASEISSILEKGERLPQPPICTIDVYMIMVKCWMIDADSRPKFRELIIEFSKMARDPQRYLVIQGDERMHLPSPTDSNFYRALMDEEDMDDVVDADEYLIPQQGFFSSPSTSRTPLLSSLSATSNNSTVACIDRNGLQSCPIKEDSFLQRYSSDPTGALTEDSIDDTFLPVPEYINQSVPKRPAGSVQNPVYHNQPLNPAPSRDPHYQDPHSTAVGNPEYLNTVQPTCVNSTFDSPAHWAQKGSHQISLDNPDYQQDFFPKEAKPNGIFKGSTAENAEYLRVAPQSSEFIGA
T1 sequence (P00533 other isoform, or with tags, fused parts or gaps DUP768-770): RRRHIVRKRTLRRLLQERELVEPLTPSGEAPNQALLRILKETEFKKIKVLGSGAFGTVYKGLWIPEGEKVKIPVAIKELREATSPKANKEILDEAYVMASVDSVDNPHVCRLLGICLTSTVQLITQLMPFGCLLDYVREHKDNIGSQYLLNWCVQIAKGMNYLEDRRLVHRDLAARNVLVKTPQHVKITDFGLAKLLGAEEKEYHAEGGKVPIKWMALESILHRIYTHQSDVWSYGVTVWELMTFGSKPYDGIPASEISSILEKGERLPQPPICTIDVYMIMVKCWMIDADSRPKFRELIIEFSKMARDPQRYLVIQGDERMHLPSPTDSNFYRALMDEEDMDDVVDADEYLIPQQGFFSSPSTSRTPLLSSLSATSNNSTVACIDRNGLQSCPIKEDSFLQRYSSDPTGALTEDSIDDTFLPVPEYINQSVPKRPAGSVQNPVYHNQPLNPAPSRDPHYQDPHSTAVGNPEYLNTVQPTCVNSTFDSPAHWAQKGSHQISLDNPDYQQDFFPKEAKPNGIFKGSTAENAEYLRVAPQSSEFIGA
T2 sequence (O43683 704-1085): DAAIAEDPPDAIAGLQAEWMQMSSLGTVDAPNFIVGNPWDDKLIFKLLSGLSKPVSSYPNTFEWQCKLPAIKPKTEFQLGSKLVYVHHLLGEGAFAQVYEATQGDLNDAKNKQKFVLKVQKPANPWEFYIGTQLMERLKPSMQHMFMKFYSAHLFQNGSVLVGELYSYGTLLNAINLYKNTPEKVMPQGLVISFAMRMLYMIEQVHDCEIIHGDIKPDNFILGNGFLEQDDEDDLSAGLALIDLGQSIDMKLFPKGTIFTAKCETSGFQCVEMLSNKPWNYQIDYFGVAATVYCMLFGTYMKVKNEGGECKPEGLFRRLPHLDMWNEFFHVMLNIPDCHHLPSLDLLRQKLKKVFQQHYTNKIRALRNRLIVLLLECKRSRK
Sequence of Ba/F3-EGFR-D770_N771insSVD cells (P00533 with tags, fused parts or gaps DUP768-770): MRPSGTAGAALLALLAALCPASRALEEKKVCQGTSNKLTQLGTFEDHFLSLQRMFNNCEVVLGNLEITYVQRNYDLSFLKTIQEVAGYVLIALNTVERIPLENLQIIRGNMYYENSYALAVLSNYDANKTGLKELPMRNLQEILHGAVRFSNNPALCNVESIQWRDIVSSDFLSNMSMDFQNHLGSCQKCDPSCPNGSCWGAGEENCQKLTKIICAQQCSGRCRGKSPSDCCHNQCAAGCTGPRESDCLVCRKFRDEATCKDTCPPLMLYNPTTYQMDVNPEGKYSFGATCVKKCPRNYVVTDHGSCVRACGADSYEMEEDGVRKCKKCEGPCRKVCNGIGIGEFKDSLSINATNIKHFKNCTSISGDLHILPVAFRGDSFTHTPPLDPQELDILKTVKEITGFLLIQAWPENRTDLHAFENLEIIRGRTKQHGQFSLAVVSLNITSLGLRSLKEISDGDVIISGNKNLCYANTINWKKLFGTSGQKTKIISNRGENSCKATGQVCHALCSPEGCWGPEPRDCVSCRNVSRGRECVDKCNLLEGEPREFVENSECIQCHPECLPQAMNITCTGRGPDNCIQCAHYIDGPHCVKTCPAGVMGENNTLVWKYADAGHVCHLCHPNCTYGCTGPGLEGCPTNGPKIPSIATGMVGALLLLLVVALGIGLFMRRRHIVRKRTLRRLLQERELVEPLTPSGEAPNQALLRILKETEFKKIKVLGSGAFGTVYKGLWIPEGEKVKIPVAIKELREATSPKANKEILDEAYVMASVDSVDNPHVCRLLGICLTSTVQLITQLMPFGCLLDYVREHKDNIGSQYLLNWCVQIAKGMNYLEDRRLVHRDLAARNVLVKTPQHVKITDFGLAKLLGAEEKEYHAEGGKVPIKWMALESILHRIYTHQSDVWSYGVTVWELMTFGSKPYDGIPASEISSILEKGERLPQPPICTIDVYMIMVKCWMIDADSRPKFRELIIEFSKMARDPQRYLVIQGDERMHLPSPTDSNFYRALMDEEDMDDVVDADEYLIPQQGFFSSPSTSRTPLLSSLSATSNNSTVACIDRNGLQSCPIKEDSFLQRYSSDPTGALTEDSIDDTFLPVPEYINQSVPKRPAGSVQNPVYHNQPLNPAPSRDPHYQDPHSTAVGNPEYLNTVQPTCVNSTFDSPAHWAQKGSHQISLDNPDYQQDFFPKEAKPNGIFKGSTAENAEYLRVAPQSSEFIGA

CCc1c(Cl)cccc1Nc1c(-c2ccncc2OC[C@@H]2COCCO2)[nH]c2c1C(=O)N[C@H](C)C2 [Example 110, (6R)-3-(3-chloro-2-ethylanilino)-2-(3-{[(2S)-1,4-dioxan-2-yl]methoxy}pyridin-4-yl)-6-methyl-1,5,6,7-tetrahydro-4H-pyrrolo[3,2-c]pyridin-4-one]
GI50 (Ba/F3-EGFR-WT cells): 780 nM | GI50 [1]: 40.3 nM | mutEGFR (D770_N771insSVD) kinase assay IC50 [2]: 0.333 nM | IC50 (Bub1): 1210 nM

COc1c(Cl)cccc1Nc1c(-c2ccncc2OCC2COCCO2)[nH]c2c1C(=O)NCC2C (single isomer, unassigned) [Example 35, 3-(3-chloro-2-methoxy-anilino)-2-[3-(1,4-dioxan-2-ylmethoxy)-4-pyridyl]-7-methyl-1,5,6,7-tetrahydropyrrolo[3,2-c]pyridin-4-one]
GI50 (Ba/F3-EGFR-WT cells): 811 nM | GI50 [1]: 54.1 nM | mutEGFR (D770_N771insSVD) kinase assay IC50 [2]: 0.272 nM | IC50 (Bub1): 12400 nM

COc1c(Cl)cccc1Nc1c(-c2ccncc2OCCC2CCCCO2)[nH]c2c1C(=O)N[C@H](C)C2 (stereo partly drawn) [Example 86, (6R)-3-(3-chloro-2-methoxy-anilino)-6-methyl-2-[3-(2-tetrahydropyran-2-ylethoxy)-4-pyridyl]-1,5,6,7-tetrahydropyrrolo[3,2-c]pyridin-4-one]
GI50 (Ba/F3-EGFR-WT cells): 480 nM | GI50 [1]: 19.3 nM | mutEGFR (D770_N771insSVD) kinase assay IC50 [2]: 0.261 nM | IC50 (Bub1): 2400 nM

COc1c(Cl)cccc1Nc1c(-c2ccncc2OC[C@@H]2CCCO2)[nH]c2c1C(=O)NC1(CCC1)C2 [Example 126, 3′-(3-chloro-2-methoxyanilino)-2′-(3-{[(2S)-oxolan-2-yl]methoxy}pyridin-4-yl)-1′,7′-dihydrospiro[cyclobutane-1,6′-pyrrolo[3,2-c]pyridin]-4′(5′H)-one]
GI50 (Ba/F3-EGFR-WT cells): 814 nM | GI50 [1]: 46.4 nM | mutEGFR (D770_N771insSVD) kinase assay IC50 [2]: 0.279 nM | IC50 (Bub1): 1100 nM

COc1c(Cl)cccc1Nc1c(-c2ccncc2OC[C@@H]2CCCO2)[nH]c2c1C(=O)NC(C)C2 (mixture of isomers) [Example 3, 3-(3-chloro-2-methoxyanilino)-6-methyl-2-(3-{[(2S)-oxolan-2-yl]methoxy}pyridin-4-yl)-1,5,6,7-tetrahydro-4H-pyrrolo[3,2-c]pyridin-4-one]
GI50 (Ba/F3-EGFR-WT cells): 328 nM | GI50 [1]: 28.5 nM | mutEGFR (D770_N771insSVD) kinase assay IC50 [2]: 0.0854 nM | IC50 (Bub1): 5390 nM

Cc1c(Cl)cccc1Nc1c(-c2ccncc2OC[C@@H]2CCCO2)[nH]c2c1C(=O)NCC2C (single isomer, unassigned) [Example 59]
GI50 (Ba/F3-EGFR-WT cells): 609 nM | GI50 [1]: 41.9 nM | mutEGFR (D770_N771insSVD) kinase assay IC50 [2]: 0.285 nM | IC50 (Bub1): 16400 nM

Cc1c(Cl)cccc1Nc1c(-c2ccncc2OCC2CCCCO2)[nH]c2c1C(=O)NCC2C (single isomer, unassigned) [Example 119, 3-(3-chloro-2-methyl-anilino)-7-methyl-2-[3-(tetrahydropyran-2-ylmethoxy)-4-pyridyl]-1,5,6,7-tetrahydropyrrolo[3,2-c]pyridin-4-one]
GI50 (Ba/F3-EGFR-WT cells): 1290 nM | GI50 [1]: 54.7 nM | mutEGFR (D770_N771insSVD) kinase assay IC50 [2]: 0.324 nM | IC50 (Bub1): 1520 nM

C[C@@H]1Cc2[nH]c(-c3ccncc3OCC3COCCO3)c(Nc3cccc(F)c3CC(F)F)c2C(=O)N1 (stereo partly drawn) [Example 108, (6R)-3-[2-(2,2-difluoroethyl)-3-fluoro-anilino]-2-[3-(1,4-dioxan-2-ylmethoxy)-4-pyridyl]-6-methyl-1,5,6,7-tetrahydropyrrolo[3,2-c]pyridin-4-one]
GI50 (Ba/F3-EGFR-WT cells): 1400 nM | GI50 [1]: 141 nM | mutEGFR (D770_N771insSVD) kinase assay IC50 [2]: 0.213 nM | IC50 (Bub1): 6220 nM

COc1c(Cl)cccc1Nc1c(-c2ccncc2OCC(C)(C)OC)[nH]c2c1C(=O)NCC2CCO (stereo not shown) [Example 13, 3-(3-chloro-2-methoxyanilino)-7-(2-hydroxyethyl)-2-[3-(2-methoxy-2-methylpropoxy)pyridin-4-yl]-1,5,6,7-tetrahydro-4H-pyrrolo[3,2-c]pyridin-4-one]
GI50 (Ba/F3-EGFR-WT cells): 339 nM | GI50 [1]: 35 nM | mutEGFR (D770_N771insSVD) kinase assay IC50 [2]: 0.189 nM | IC50 (Bub1): 3630 nM

COc1c(Cl)cccc1Nc1c(-c2ccncc2OCC2COC(C)(C)CO2)[nH]c2c1C(=O)N[C@H](C)C2 (mixture of isomers) [Example 77, (6R)-3-(3-chloro-2-methoxy-anilino)-2-{3-[(5,5-dimethyl-1,4-dioxan-2-yl)methoxy]-4-pyridyl}-6-methyl-1,5,6,7-tetrahydropyrrolo[3,2-c]pyridin-4-one]
GI50 (Ba/F3-EGFR-WT cells): 3200 nM | GI50 [1]: 15.3 nM | mutEGFR (D770_N771insSVD) kinase assay IC50 [2]: 0.15 nM | IC50 (Bub1): > 20000 nM

COc1c(Cl)cccc1Nc1c(-c2ccncc2OCC2CCCCO2)[nH]c2c1C(=O)NCC2C (single isomer, unassigned) [Example 46, 3-(3-chloro-2-methoxy-anilino)-7-methyl-2-[3-(tetrahydropyran-2-ylmethoxy)-4-pyridyl]-1,5,6,7-tetrahydropyrrolo[3,2-c]pyridin-4-one]
GI50 (Ba/F3-EGFR-WT cells): 2750 nM | GI50 [1]: 125 nM | mutEGFR (D770_N771insSVD) kinase assay IC50 [2]: 1.17 nM | IC50 (Bub1): > 20000 nM

COc1c(Cl)cccc1Nc1c(-c2ccncc2OCC(C)(C)OC)[nH]c2c1C(=O)N[C@H](C)C2 [Example 1, (6R)-3-(3-chloro-2-methoxyanilino)-2-[3-(2-methoxy-2-methylpropoxy)pyridin-4-yl]-6-methyl-1,5,6,7-tetrahydro-4H-pyrrolo[3,2-c]pyridin-4-one]
GI50 (Ba/F3-EGFR-WT cells): 417 nM | GI50 [1]: 17.8 nM | mutEGFR (D770_N771insSVD) kinase assay IC50 [2]: 0.135 nM | IC50 (Bub1): 1320 nM

COc1c(Cl)cccc1Nc1c(-c2ccncc2OC[C@@H]2CCCO2)[nH]c2c1C(=O)NCC2CCO (single isomer, unassigned) [Example 18]
GI50 (Ba/F3-EGFR-WT cells): 362 nM | GI50 [1]: 26.4 nM | mutEGFR (D770_N771insSVD) kinase assay IC50 [2]: 0.113 nM | IC50 (Bub1): 19200 nM and > 20000 nM

COc1c(Cl)cccc1Nc1c(-c2ccncc2OCC2OCCCC2(F)F)[nH]c2c1C(=O)N[C@H](C)C2 (mixture of isomers) [Example 74, (6R)-3-(3-chloro-2-methoxy-anilino)-2-{3-[(3,3-difluorotetrahydropyran-2-yl)methoxy]-4-pyridyl}-6-methyl-1,5,6,7-tetrahydropyrrolo[3,2-c]pyridin-4-one]
GI50 (Ba/F3-EGFR-WT cells): 457 nM | GI50 [1]: 14 nM | mutEGFR (D770_N771insSVD) kinase assay IC50 [2]: 0.242 nM | IC50 (Bub1): > 20000 nM

COc1c(Cl)cccc1Nc1c(-c2ccncc2OCC2CCCCN2C)[nH]c2c1C(=O)N[C@H](C)C2 (single isomer, unassigned) [Example 84]
GI50 (Ba/F3-EGFR-WT cells): 379 nM | GI50 [1]: 16.1 nM | mutEGFR (D770_N771insSVD) kinase assay IC50 [2]: 0.657 nM | IC50 (Bub1): > 20000 nM

COc1c(Cl)cccc1Nc1c(-c2ccncc2OC[C@@H]2CCCO2)[nH]c2c1C(=O)N[C@@H]1CCC[C@H]21 [Example 56, (5aR,8aS)-3-(3-chloro-2-methoxyanilino)-2-(3-{[(2S)-oxolan-2-yl]methoxy}-4-pyridyl)-5,5a,6,7,8,8a-hexahydrocyclopenta[b]pyrrolo[2,3-d]pyridin-4(1H)-one]
GI50 (Ba/F3-EGFR-WT cells): 693 nM | GI50 [1]: 51.5 nM | mutEGFR (D770_N771insSVD) kinase assay IC50 [2]: 0.194 nM | IC50 (Bub1): 18500 nM and 18800 nM and > 20000 nM
